Source: patent publication US6423347B1, “Method and product using sturgeon notochord for alleviating the symptoms of arthritis” (Abbott Laboratories, priority 1997, dated 2002)
Read-outs that look alike come from different tables or passages of the source.

Experiments:
[1] = test system: collagen-induced arthritis (CIA); experiment: Dose response of sturgeon notochord in protecting mice from CIA; format: in vivo, DBA/1 Lac J strain mice; conditions: 0.1 mg/kg p.o.
Experimental: To evaluate the dose response of sturgeon notochord in protecting mice from CIA, this experiment was conducted in a manner similar to Examples II and III. The mice were DBA/1 Lac J strain supplied by Jackson Laboratories of Bar Harbor, Maine. All mice were female and about 6-8 weeks of age. Eight groups of 10-15 mice per group were acclimated to their surroundings for 7 days. A standard mouse chow and water were provided for ad libitum consumption to all animals.
On Days[…] −10, −7, −5 and −2 prior to immunization, mice were sensitized by sturgeon notochord. A group fed only vehicle was used as the negative control and a group fed with an effective dose of dexamethasone (0.1 mg/kg per os) was used as the positive control. Sturgeon notochord was obtained from farm raised sturgeon and pulverized in liquid nitrogen. The dose level of sturgeon notochord was equilibrated to 1, 3, 10, 30, 100 or 300 μg of collagen per dose based on the protein and collagen content. Sturgeon notochord was dissolved/suspended in 0.01 M acetic acid and 0.3 ml was administered to each mouse with a ball tipped feeding needle.
On Day 0, the mice were immunized at the base of the tail with 100 μg of bovine CII which was emulsified in CFA. On Day 21, the mice were injected subcutaneously with 50 μg of LPS.
Mice were inspected daily for the onset of CIA, characterized by erythema and edema. Limbs were clinically evaluated and graded on a scale of 0 to 6 as described in Example III.
The inventors continued to observe four selected groups (vehicle control group, sturgeon notochord 0.105 mg/dose group, sturgeon notochord 1.053 mg/dose group, and dexamethasone group) until Day 79. Severity scores plotted against days post-sensitization are found in FIG. 1.

[2] = test system: chronic CIA induced by using human CII; experiment: Chronic CIA induced by human type II collagen; format: in vivo, Female DBA/1 Lac J strain mice; conditions: 0.1 mg dexamethasone/kg BW on Days 21 and 35
Experimental: Effect of Sturgeon Notochord in a Chronic Arthritis Induced by Human Type II Collagen This experiment was conducted to investigate the effectiveness of sturgeon notochord in protecting mice from chronic CIA induced by using human CII (unlike other examples in this application which used bovine CII). Female DBA/1 Lac J strain mice, approximately 6-8 weeks of age, were obtained from Jackson Laboratories of Bar Harbor, Maine. Animals were acclimated to their surroundings for 7 days. A standard mouse chow (Teklad diet) and water were provided for ad libitum consumption.
The chronic CIA induction was achieved by immunizing each mice on Day 0 and Day 21 at the base of the tail with […] of human CII which was emulsified in CFA. Animals in the vehicle control group and Dexamethasone control group received 0.01 M acetic acid on Days −10, −7, −5, and −2 and 0.1 mg dexamethasone/kg BW on Days 21 and 35, respectively. The mice receiving sturgeon notochord were divided into three groups and they were dosed with 100 mg collagen per dose dissolved/suspended in 0.01 M acetic acid and 0.3 ml was administered. Group 1 received sturgeon notochord on Days −10, −7, −5, and −2; Group 2, on Days 7, 10, 12, and 14; Group 3, Days 28, 31, 33, and 35.
Mice were inspected daily for the onset of CIA, characterized by erythema and edema. Limbs were clinically evaluated and graded on a scale of 0 to 6 (0, absence of arthritis; 0.5, one or more digits swollen or only the paw swollen; 1, entire paw swollen; 2, entire paw severely swollen; 3, mild deformity after inflammation subsides; 4, severe deformity; 5, mild ankylosis with partial loss of joint function in the paw; 6, severe ankylosis with total loss of joint function in the paw). […]

[3] = test system: collagen-induced arthritis (CIA); format: in vivo
Experimental: These Examples were conducted to investigate the effectiveness of sturgeon notochord in protecting mice from collagen-induced arthritis (CIA). Female DBA/1 Lac J strain mice, approximately 6-8 weeks of age, were obtained from Jackson Laboratories of Bar Harbor, Maine. Three groups of 20 mice per group were acclimated to their surroundings for 7 days. A standard mouse chow (Purina Certified Mouse Chow #5015; 11% by wt. fat; collagen-free) and water were provided for ad libitum consumption to all animals.
Bovine serum albumin (a protein derived from non-connective tissue) and cod skin gelatin (a protein derived from another connective tissue containing Type I collagen of a fish) served as negative controls. Sturgeon notochord was obtained from farm raised sturgeon and pulverized in liquid nitrogen. The level of each test composition was equilibrated to a 300 μg protein dose based on protein (including collagen) content. Test articles were dissolved/suspended in 0.01 M acetic acid and 0.3 ml was administered per dose to each mouse with a ball tipped feeding needle.
On Day 0, the mice were immunized at the base of the tail with 100 μg of bovine CII which was emulsified in Complete Freund's Adjuvant (CFA). On Day 7, a second booster dose of 100 μg bovine CII in CFA was administered by the same route. On Day 14, the mice were injected subcutaneously with 100 μg of lipopolysaccharide (LPS). This protocol represents a mild induction of CIA.
Mice were inspected daily for the onset of CIA, characterized by erythema and edema. Limbs were clinically evaluated and graded on a scale of 0 to 3 (0, absence of arthritis; 1, mild swelling and erythema; 2, swelling and erythema of both tarsus and ankle; 3, ankylosis and bone deformity). […] All mice were euthanized by CO2 on Day 50.

`C[C@@H]1C[C@H]2[C@@H]3CCC4=CC(=O)C=C[C@]4(C)[C@@]3(F)[C@@H](O)C[C@]2(C)[C@@]1(O)C(=O)CO` [Dexamethasone] was tested, and the “% of incidence” value ([1]; D26) was 40%, the severity score ([1]; D26) was 1.0 ± 0.4 and the “% of incidence” value ([1]; D28) was 50%. The severity score ([1]; D28) was 1.1 ± 0.4, the “% of incidence” value ([1]; D35) was 50% and the severity score ([1]; D35) was 1.1 ± 0.4. The “% incidence” value ([2]; D28) was 33%, the severity score ([2]; D28) was 0.25 and the “% incidence” value ([2]; D35) was 67%. The severity score ([2]; D35) was 0.42, the “% incidence” value ([2]; D42) was 100% and the severity score ([2]; D42) was 1.75. For the same compound, the “% incidence” value ([2]; D49) was 100% and the severity score ([2]; D49) was 3.58.

bovine serum albumin [BSA] was tested, and the “median day of onset” value ([3]; 300 μg protein dose oral on Days −10, −7, −5 and −2) was 17 days, the “# animals with arthritis” value ([3]; Day 20, 300 μg protein dose oral on Days −10, −7, −5 and −2) was 12 and the “# animals with arthritis” value ([3]; Day 28, 300 μg protein dose oral on Days −10, −7, −5 and −2) was 12. The “# animals with arthritis” value ([3]; Day 40, 300 μg protein dose oral on Days −10, −7, −5 and −2) was 12, the “# animals with arthritis” value ([3]; Day 50, 300 μg protein dose oral on Days −10, −7, −5 and −2) was 14 and the “% onset” value ([3]; calculated based on the Day 50 data, 300 μg protein dose) was 78%. For the same compound, the mean severity score ([3]; scale of 0 to 3, based on Day 20, 29, 34, 43 and 50 data, 300 μg protein dose) was 2.05.
